In patent publication US20240207361A1, “ERYTHROPOIETIN-DERIVED PEPTIDES FOR TREATING RELAPSING-REMITTING MULTIPLE SCLEROSIS” (The United States Government as represented by the …, priority 2021, published 2024):
Entries after “also recorded” stand apart in the source; their conditions may differ.

Legend:
[1] = test system: SJL/J relapsing-remitting EAE mice; assay: Spinal cord histopathology (Luxol fast blue, SMI-32, mouse IgG) in SJL/J relapsing-remitting EAE; type: in vivo
Source text: Histopathology. To assess CNS inflammation and demyelination at different time points after immunization, EAE mice in the JM4 peptide-treated and sham-treated groups were anesthetized and perfused with ice-cold PBS, followed by 4% paraformaldehyde into the left ventricle. Spinal cords and brain were removed. Tissues were then embedded in paraffin, sectioned and stained with Luxol-Fast Blue/PAS to determine the extent of demyelination. Five-micron paraffin sections from the high cervical, thoracic and low lumbosacral region of the spinal cord were placed on the same slide. Each slide contained a control normal spinal cord section, a sham-treated EAE cord, and spinal cord sections from JM4 treated EAE animals. Histopathologic examination was performed in blinded fashion. In addition, SMI-32 anti-neurofilament H immunohistochemical staining was completed to assess acute axonal injury (Aquino D, et al. Journal of Neurochemistry 1990:54:1398-404). In brief, 5 μm sections were de-paraffinized, treated with antigen-retrieving solution, and blocked with normal horse serum to minimize nonspecific binding. The sections were first incubated with mouse SMI-32 antibody (Sternberger Monoclonals, Lutherville, MD) diluted 1:5,000 in PBS overnight at 4° C. After two 5-minute PBS washes, the sections were incubated with biotinylated horse anti-mouse IgG (Vector Labs, Burlingame, CA), and then by horseradish peroxidase (HRP)-avidin complex (Vector Labs) for 30 minutes each. Immunostaining was visualized by reacting the sections with diaminobenzidine tetrahydrochloride (Stable DAB: Invitrogen) for 1 to 3 minutes. Excess DAB was removed by washing with distilled water and the slides were evaluated using light microscopy.

[2] = test system: GFAP-luc; assay: GFAP-luc bioluminescence imaging flare-ups in PLP-induced relapsing-remitting EAE; type: in vivo, mouse; conditions: for number of imaging flare ups / GFAP-luc expression compared to sham treated: relapsing-remitting EAE, brain or spinal cord
Description: (§1) Bioluminescence Imaging (BLI). Bioluminescent signals were quantified using the In Vivo Imaging System 100 (IVIS: Xenogen, Alameda, CA) with a cold Charged Coupled Device (CCD) camera mounted in a dark box. Three animals were imaged simultaneously. Mice received an IV injection of 1 mg/kg D-luciferin (Xenogen) 2-3 minutes prior to imaging and were immediately anesthetized with vaporized isoflurane for imaging. The imaging signal was quantified in units of photons per second per centimeter squared per steradian (photons/s·cm2/sr) using […] Version 3.1 (Xenogen) software and integrated over 2 minutes. For signal quantification, photons were obtained from a “region of interest” (ROI) that covered 2.18 cm2 of contiguous forebrain and 5.27 cm2 of spinal cord region. Bioluminescence was expressed as a ratio of the total photons value from the central nervous system ROI to the photon value obtained from an equal sized area over the left ear, used as an endogenous control. In the acute EAE model, measurements were typically taken every 1-2 days and the average of 2 consecutive days readings were used. Bioluminescence imaging was performed every other day after disease onset and twice weekly during the later chronic phase of the illness.
(§2) JM4 treatment. The JM4 peptide was first dissolved in distilled water to 2 mg/ml and stored at −80° C. Immediately before use, the peptide solution was further diluted to 5 μg/200 μl with PBS. […] The EAE mice were randomly divided into a JM4 treated and a sham treated group. The JM4 treated EAE animals (4-10 per group) were treated daily with IV JM4 250 μg/kg of the peptide in PBS for 10-12 days. Control EAE animals were sham-treated with IV saline for the same time period. To evaluate the treatment effects, mice underwent BLI examination as well as clinical and histopathologic evaluation.
(§3) Statistical analysis. Data is presented as the mean±SEM. Two tailed t-tests were used to compare JM4 effects on BLI and clinical scores. The long-term effects of JM4 were studied in the relapsing EAE model by using each subject's average clinical score from day 60 onward. Bioluminescence was measured by the number of days where luminescence intensity in the spinal cord exceeded a threshold of 0.5 relative to the left ear. Survival data was examined using a two-tailed log-rank test. Values of p<0.05 were considered significant.

[3] = symptomatic EAE mice, literature; cited from earlier work
[4] = Hematopoietic and other side effects; conditions: acute MOG and relapsing-remitting PLP SJL/J EAE models
[5] = test system: MOG-induced EAE GFAP-Luc/C57 mice; assay: Clinical neurologic scoring in MOG-induced monophasic EAE; type: in vivo, mouse; conditions: for clinical score compared to sham treated: 5 μg IV daily for 12 days from day 9, n=8 per group
Source text: (§4) Methods. Animals. Male FVB/N-Tg (GFAP-luc+/−) mice (Xenogen Corp, Alameda, CA) were crossed with either albino C57BL/6J-Tyrc-2j or SJL/J mice purchased from Charles River Laboratories (Wilmington, MA). The FI offspring were genotyped by PCR following the manufacturer's protocol. Female mice between 8-10 weeks of age positive for GFAP (GFAP-luc/C57 or GFAP-Luc/SJL) expression were used.
Induction of EAE and clinical assessment of animals. Active EAE was induced according to a standard protocol (Smith M, et al. Brain Research 1983:264:241-53). Mice were immunized on Day 0 by subcutaneous injection on both sides of the tail base with 100 μL of an emulsion composed of either PLP139-151 or MOG35-55 peptide in an equal volume of Freund's adjuvant, supplemented with 4 mg/mL killed M. tuberculosis H37Ra (Difco Laboratories, Detroit, MI). The initial dose of antigen was 100 μg of PLP peptide for inducing relapsing EAE in SJL/J mice, or 200 μg of MOG peptide per C57BL/6 mouse for induction of acute monophasic EAE. GFAP-Luc/SJL/J mice received a second PLP antigen immunization on Day 7. Immediately following these immunizations, mice received intravenous (IV) injections of 200 ng Bordetella pertussis toxin diluted in 200 μL phosphate buffered saline (PBS) (List Biological Laboratories, Campbell, CA). […] Animals were weighed and assessed daily for clinical signs of EAE by two blinded independent observers during the acute phase of illness, and followed three times a week during the later chronic phase. The monophasic EAE MOG C57BL6 model was monitored for 28-30 days and the PLP SJL/J relapsing model was followed for nearly 6 months after immunization. The clinical scoring system used to quantify behavioral neurological deficits in the EAE mouse models (Table 2) was previously described (Aquino D, et al. Journal of Neurochemistry 1990:54:1398-404). […]
Statistical analysis. […] Bioluminescence was measured by the number of days where luminescence intensity in the spinal cord exceeded a threshold of 0.5 relative to the left ear. […]

[6] = test system: GFAP-luc; assay: GFAP-luc bioluminescence imaging (BLI) in MOG-induced EAE; type: in vivo, mouse
Description: as §1, §2, §3

[7] = test system: PLP-induced relapsing-remitting EAE GFAP-Luc/SJL mice; assay: Clinical scoring, relapse and survival in PLP-induced relapsing-remitting EAE; type: in vivo, mouse; conditions: for long term clinical scores compared to sham treated: for over five months, n=4 JM-4, n=5 sham, p<0.05 at day 60 onward
Source text: as §4
Induction of EAE and clinical assessment of animals. […] Mice were immunized on Day 0 by subcutaneous injection on both sides of the tail base with 100 μL of an emulsion composed of either PLP139-151 or MOG35-55 peptide in an equal volume of Freund's adjuvant, supplemented with 4 mg/mL killed M. tuberculosis H37Ra (Difco Laboratories, Detroit, MI). The initial dose of antigen was 100 μg of PLP peptide for inducing relapsing EAE in SJL/J mice, or 200 μg of MOG peptide per C57BL/6 mouse for induction of acute monophasic EAE. GFAP-Luc/SJL/J mice received a second PLP antigen immunization on Day 7. Immediately following these immunizations, mice received intravenous (IV) injections of 200 ng Bordetella pertussis toxin diluted in 200 μL phosphate buffered saline (PBS) (List Biological Laboratories, Campbell, CA). The GFAP-Luc/C57BL mice received an additional IV injection of 200 ng Bordetella pertussis toxin on post-inoculation Day 2. Animals were weighed and assessed daily for clinical signs of EAE by two blinded independent observers during the acute phase of illness, and followed three times a week during the later chronic phase. The monophasic EAE MOG C57BL6 model was monitored for 28-30 days and the PLP SJL/J relapsing model was followed for nearly 6 months after immunization. The clinical scoring system used to quantify behavioral neurological deficits in the EAE mouse models (Table 2) was previously described (Aquino D, et al. Journal of Neurochemistry 1990:54:1398-404).
Immediately before use, the peptide solution was further diluted to 5 μg/200 μl with PBS. […] Control EAE animals were sham-treated with IV saline for the same time period. To evaluate the treatment effects, mice underwent BLI examination as well as clinical and histopathologic evaluation.
Statistical analysis. Data is presented as the mean±SEM. […] Bioluminescence was measured by the number of days where luminescence intensity in the spinal cord exceeded a threshold of 0.5 relative to the left ear. Survival data was examined using a two-tailed log-rank test. Values of p<0.05 were considered significant.

[8] = test system: complement component C3; assay: C3/GFAP immunohistochemistry for A1 astrocyte activation in spinal cord of MOG EAE mice; type: in vivo, mouse
Description: Spinal cord (cut into 6-7 equal pieces from cervical to sacral) was frozen and serially cut at 8 μm-thick cross sections and collected on slides, then post-fixed in acetone at −20° C. for 10 min. Sections were first treated with Target Unmasking Fluid (Pan Path) at 90° C. for 10 min, and blocked in 2% normal horse serum for 10 min. Sections were incubated overnight at 4° C. with either monoclonal rat anti-mouse C3 complement (Abcam, AB11862) at 1:50 or polyclonal rabbit anti-mouse GFAP (Dako Z0334GFAP) at 1:500. The next day sections were washed in PBS three times for 10 min each and incubated with cy3 or cy2 conjugated goat anti-mouse/rat/rabbit IgG (Jackson ImmunResearch) at 1:120 working dilution for 1 hour. Sections were washed in dH2O three times for 10 min each, followed by fluorescence microscopy imaging.
Immunohistochemistry images were obtained using an Olympus BX41 fluorescent microscope (Center Valley, PA, USA) fitted with ProgRes MF cool digital camera using 4× or 10× objectives. Half of each section from different spinal levels was quantified by measuring the percent area in the structure where label exceeded a constant threshold value using Image Pro 4.0 image analysis software (BD Biosciences, Franklin Lakes, NJ).
as §3

[9] = test system: EAE mice; conditions: cited from earlier work

Sequence: GCAEHCSLNENITVPDTKV [JM-4]
- spinal cord demyelination and axonal injury ([1]; Luxol fast blue, ventral white matter): protective against spinal cord demyelination and axonal injury
- number of injured axons (SMI-32) rimming the ventral spinal cord versus sham ([1]; mouse, in vivo): large reduction in number of injured axons
- IgG immunoreactivity in spinal cord (blood-brain barrier breakdown) ([1]; versus saline treated EAE): profoundly reduced
- number of spinal cord bioluminescence flare ups (mean+/−SEM) ([2]; 5 μg IV daily for 12 days, n=8 JM-4, n=7 sham, sham 10.29+/−2.447, p<0.05): 4.0+/−1.018
- average daily intensity of the bioluminescent signal versus sham-treated ([2]; chronic remitting-relapsing EAE): not significantly different
- number of imaging flare ups / GFAP-luc expression compared to sham treated [2]: substantially less; also recorded: significantly decreased
- number of imaging flare ups / GFAP-luc expression compared to sham treated ([2]; listed as JM4): significantly decreased
- erythropoietic activity [3]: without the activities responsible for excessive erythropoiesis
- hematogenic side effects [4]: without the negative hematogenic side effects
- clinical score compared to sham treated [5]: significantly lower
- clinical score compared to sham treated ([5]; listed as JM4): significant reduction in clinical score
- maximum mean clinical score ([5]; JM4 250 μg/kg IV for 12 days starting day 9 post-immunization, score scale 0-6 (Table 2), sham 3.7±0.4, p<0.05): 2.25±0.3
- peak bioluminescent values in forebrain and spinal cord compared to sham treated ([6]; 5 μg IV daily for 12 days from day 9, n=8, p<0.05): significantly lower
- spinal cord bioluminescence signal after start of treatment, single imaged animal ([6]; FIG. 3A, treatment started day 9): virtual absence of spinal cord signal by day 4
- GFAP-luc signal returned to baseline earlier than sham-treated group ([6]; MOG EAE): 3 to 4 days
- reduction of bioluminescence from peak disease scores compared with sham animals ([6]; at days 11 to 12): 3-4 fold
- clinical deficit improved earlier than sham-treated animals ([7]; acute phase of the disease): 7 days
- survival ([7]; at 100 days, Kaplan-Meier, sham 50%): 100%
- average clinical score ([7]; for 130 days, 12-day course IV 5 μg/day from day 9, sham around 2): under 1
- long term clinical scores compared to sham treated [7]: remarkably reduced
- long term clinical scores compared to sham treated ([7]; listed as JM4): significantly lower
- animals remaining relapse-free by clinical scoring ([7]; throughout the 5-month experiment, sham 20%): 50%
- C3 expression in spinal cord ([8]; 24 days post immunization, JM4 250 μg/kg IV 12 days from day 9, n=7 per group, EAE 17.5+/−3.7, p<0.05): 8.3+/−1.9
- attenuation of A1 astrocyte activation ([8]; EAE mice): over 50%
- C3 / A1 astrocyte immunoreactivity versus untreated EAE ([8]; spinal cord): massive reduction of C3 positive A1 astrocytes; also recorded: significant decrease in C3 immunoreactivity
- decrease of dendritic cells ([9]; EAE mice): ten-fold
- mononuclear cells count ([9]; EAE mice): reduced elevated mononuclear cells count to normal
- proinflammatory cytokines including IL-2, IL-6, TNF-alpha and INF-gamma ([9]; EAE mice): decreased proinflammatory cytokines
- T helper Th 17 positive cells ([9]; SJL/J EAE mice): reduce T helper Th 17 positive cells
- Treg cells ([9]; SJL/J EAE mice): expand Treg cells
- tissue protective properties ([9]; symptomatic EAE mice, literature): robust EPO-like tissue protective properties
